From ChEMBL document CHEMBL1201862, “PubChem BioAssay data set” (2004)
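Growth conditions: 96-well plates. Treatment: test compound, 48 hours, 5 concentrations. Analysis: linear interpolation between bracketing concentrations; unreached endpoints set to highest concentration. Here, GI50 denotes the concentration required for 50% inhibition of growth.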 The source made the active and inactive calls. No stated cut-off is given here; in the data, active = GI50 up to about 1.1 µM and inactive = higher.

Tests used:
Experiment in all cases: NCI tumour cell line growth inhibition, 48 h
BT-549 = tested on: BT-549
K562 = tested on: K562
EKVX = tested on: EKVX
SK-OV-3 = tested on: SK-OV-3
PC-3 = tested on: PC-3
MDA-N = tested on: MDA-N
TK-10 = tested on: TK-10
Hs-578T = tested on: Hs-578T
IGROV-1 = tested on: IGROV-1
M14 = tested on: M14
OVCAR-8 = tested on: OVCAR-8
SK-MEL-28 = tested on: SK-MEL-28
COLO 205 = tested on: COLO 205
SNB-19 = tested on: SNB-19
SK-MEL-5 = tested on: SK-MEL-5
NCI-H23 = tested on: NCI-H23
MDA-MB-435 = tested on: MDA-MB-435
OVCAR-4 = tested on: OVCAR-4
OVCAR-3 = tested on: OVCAR-3
UO-31 = tested on: UO-31

## Cc1cc2nc3c(N)nn(CCN(C)C)c3nc2cc1C
BT-549
  GI50: 57.9 µM (inactive)
K562
  GI50: 83.4 µM (inactive)
EKVX
  GI50: 58.7 µM (inactive)
SK-OV-3
  GI50: 45.2 µM (inactive)
PC-3
  GI50: 44.3 µM (inactive)
MDA-N
  GI50: 50.8 µM (inactive)
TK-10
  GI50: 41.4 µM (inactive)
Hs-578T
  GI50: 40.2 µM (inactive)
IGROV-1
  GI50: 27 µM (inactive)
M14
  GI50: 61.2 µM (inactive)
OVCAR-8
  GI50: 33.8 µM (inactive)
SK-MEL-28
  GI50: 53.7 µM (inactive)
COLO 205
  GI50: 28.1 µM (inactive)
SNB-19
  GI50: 40.7 µM (inactive)
SK-MEL-5
  GI50: 24.6 µM (inactive)
NCI-H23
  GI50: 38.2 µM (inactive)
MDA-MB-435
  GI50: 37.9 µM (inactive)
OVCAR-4
  GI50: 40.6 µM (inactive)
OVCAR-3
  GI50: 55 µM (inactive)
UO-31
  GI50: 29 µM (inactive)

## CC(C)(C)OC(=O)NCC(=O)N(CCc1ccc(Cl)c(Cl)c1)CCN1CCCC1
BT-549
  GI50: 20 µM (inactive)
K562
  GI50: 8.11 µM (inactive)
EKVX
  GI50: 21.7 µM (inactive)
SK-OV-3
  GI50: 14.9 µM (inactive)
PC-3
  GI50: 15.3 µM (inactive)
MDA-N
  GI50: 14.3 µM (inactive)
TK-10
  GI50: 17.1 µM (inactive)
Hs-578T
  GI50: 18.8 µM (inactive)
IGROV-1
  GI50: 15.8 µM (inactive)
M14
  GI50: 14.3 µM (inactive)
OVCAR-8
  GI50: 18 µM (inactive)
SK-MEL-28
  GI50: 13 µM (inactive)
COLO 205
  GI50: 13.6 µM (inactive)
SNB-19
  GI50: 17.8 µM (inactive)
SK-MEL-5
  GI50: 13.7 µM (inactive)
NCI-H23
  GI50: 17.1 µM (inactive)
MDA-MB-435
  GI50: 13.9 µM (inactive)
OVCAR-4
  GI50: 21.2 µM (inactive)
OVCAR-3
  GI50: 16.7 µM (inactive)
UO-31
  GI50: 14.6 µM (inactive)

## Cc1nn(-c2ccccc2)c(C)c1/C=N/NC(=O)c1sc(=S)n(-c2ccccc2)c1N
BT-549
  GI50: 9.71 µM (inactive)
K562
  GI50: 0.681 µM (active)
EKVX
  GI50: 3.39 µM (inactive)
SK-OV-3
  GI50: 1.45 µM (inactive)
PC-3
  GI50: 4.03 µM (inactive)
MDA-N
  GI50: 4.19 µM (inactive)
TK-10
  GI50: 1.63 µM (inactive)
Hs-578T
  GI50: 1.85 µM (inactive)
IGROV-1
  GI50: 0.221 µM (active)
M14
  GI50: 4.92 µM (inactive)
OVCAR-8
  GI50: 4.69 µM (inactive)
SK-MEL-28
  GI50: 3.25 µM (inactive)
COLO 205
  GI50: 1.42 µM (inactive)
SNB-19
  GI50: 30.8 µM (inactive)
SK-MEL-5
  GI50: 4.06 µM (inactive)
NCI-H23
  GI50: 6.81 µM (inactive)
MDA-MB-435
  GI50: 4.47 µM (inactive)
OVCAR-4
  GI50: 2.69 µM (inactive)
OVCAR-3
  GI50: 16.1 µM (inactive)
UO-31
  GI50: 3.74 µM (inactive)

## CC(C)CNC(=O)Cn1c2c(c3ccccc31)CCCC2
BT-549
  GI50: > 100 µM (inactive)
K562
  GI50: 76.9 µM (inactive)
EKVX
  GI50: 71 µM (inactive)
SK-OV-3
  GI50: 23.7 µM (inactive)
PC-3
  GI50: 58.5 µM (inactive)
MDA-N
  GI50: 54 µM (inactive)
TK-10
  GI50: 35.8 µM (inactive)
Hs-578T
  GI50: 50.8 µM (inactive)
IGROV-1
  GI50: 14.9 µM (inactive)
M14
  GI50: > 100 µM (inactive)
OVCAR-8
  GI50: 81.5 µM (inactive)
SK-MEL-28
  GI50: > 100 µM (inactive)
COLO 205
  GI50: 73.8 µM (inactive)
SNB-19
  GI50: 85.3 µM (inactive)
SK-MEL-5
  GI50: 64.7 µM (inactive)
NCI-H23
  GI50: > 100 µM (inactive)
MDA-MB-435
  GI50: 73.3 µM (inactive)
OVCAR-4
  GI50: 35.4 µM (inactive)
OVCAR-3
  GI50: 39 µM (inactive)
UO-31
  GI50: 28.3 µM (inactive)

## COC(=O)c1c(C)[nH]c2c1cc(O)c1nc(C)c(C)nc12
BT-549
  GI50: > 100 µM (inactive)
K562
  GI50: > 100 µM (inactive)
EKVX
  GI50: > 100 µM (inactive)
SK-OV-3
  GI50: 70 µM (inactive)
PC-3
  GI50: 23.2 µM (inactive)
MDA-N
  GI50: > 100 µM (inactive)
TK-10
  GI50: 29.2 µM (inactive)
Hs-578T
  GI50: 45.9 µM (inactive)
IGROV-1
  GI50: > 100 µM (inactive)
M14
  GI50: > 100 µM (inactive)
OVCAR-8
  GI50: > 100 µM (inactive)
SK-MEL-28
  GI50: > 100 µM (inactive)
COLO 205
  GI50: > 100 µM (inactive)
SNB-19
  GI50: > 100 µM (inactive)
SK-MEL-5
  GI50: 48.5 µM (inactive)
NCI-H23
  GI50: 49.4 µM (inactive)
MDA-MB-435
  GI50: > 100 µM (inactive)
OVCAR-4
  GI50: > 100 µM (inactive)
OVCAR-3
  GI50: > 100 µM (inactive)
UO-31
  GI50: > 100 µM (inactive)

## Cn1c(O)c(C2=Nc3ccccc3C2=O)c2ccccc21
BT-549
  GI50: > 100 µM (inactive)
K562
  GI50: > 100 µM (inactive)
EKVX
  GI50: > 100 µM (inactive)
SK-OV-3
  GI50: > 100 µM (inactive)
PC-3
  GI50: > 100 µM (inactive)
MDA-N
  GI50: > 100 µM (inactive)
TK-10
  GI50: > 100 µM (inactive)
Hs-578T
  GI50: > 100 µM (inactive)
IGROV-1
  GI50: > 100 µM (inactive)
M14
  GI50: > 100 µM (inactive)
OVCAR-8
  GI50: > 100 µM (inactive)
SK-MEL-28
  GI50: > 100 µM (inactive)
COLO 205
  GI50: > 100 µM (inactive)
SNB-19
  GI50: > 100 µM (inactive)
SK-MEL-5
  GI50: > 100 µM (inactive)
NCI-H23
  GI50: > 100 µM (inactive)
MDA-MB-435
  GI50: > 100 µM (inactive)
OVCAR-4
  GI50: > 100 µM (inactive)
OVCAR-3
  GI50: > 100 µM (inactive)
UO-31
  GI50: > 100 µM (inactive)

## CN(C)C(=O)OC1=CC2CCC(C1)N2C (stereo not given)
BT-549
  GI50: > 100 µM (inactive)
K562
  GI50: 88.7 µM (inactive)
EKVX
  GI50: > 100 µM (inactive)
SK-OV-3
  GI50: > 100 µM (inactive)
PC-3
  GI50: 97.5 µM (inactive)
MDA-N
  GI50: > 100 µM (inactive)
TK-10
  GI50: > 100 µM (inactive)
Hs-578T
  GI50: > 100 µM (inactive)
IGROV-1
  GI50: 71.4 µM (inactive)
M14
  GI50: 79.1 µM (inactive)
OVCAR-8
  GI50: > 100 µM (inactive)
SK-MEL-28
  GI50: > 100 µM (inactive)
COLO 205
  GI50: > 100 µM (inactive)
SNB-19
  GI50: > 100 µM (inactive)
SK-MEL-5
  GI50: > 100 µM (inactive)
NCI-H23
  GI50: > 100 µM (inactive)
MDA-MB-435
  GI50: > 100 µM (inactive)
OVCAR-4
  GI50: > 100 µM (inactive)
OVCAR-3
  GI50: > 100 µM (inactive)
UO-31
  GI50: 52.5 µM (inactive)

## CCSc1c2cc(OC)ccc2nc2ccc(OC)cc12
BT-549
  GI50: 23.7 µM (inactive)
K562
  GI50: 5.74 µM (inactive)
EKVX
  GI50: 9.84 µM (inactive)
SK-OV-3
  GI50: 23.3 µM (inactive)
PC-3
  GI50: 10.7 µM (inactive)
MDA-N
  GI50: 5.24 µM (inactive)
TK-10
  GI50: 9.64 µM (inactive)
Hs-578T
  GI50: > 100 µM (inactive)
IGROV-1
  GI50: 18.3 µM (inactive)
M14
  GI50: 11.9 µM (inactive)
OVCAR-8
  GI50: 16.4 µM (inactive)
SK-MEL-28
  GI50: 14.9 µM (inactive)
COLO 205
  GI50: 7.26 µM (inactive)
SNB-19
  GI50: 26.2 µM (inactive)
SK-MEL-5
  GI50: 6.65 µM (inactive)
NCI-H23
  GI50: 9.44 µM (inactive)
MDA-MB-435
  GI50: 5.13 µM (inactive)
OVCAR-4
  GI50: 11.7 µM (inactive)
OVCAR-3
  GI50: 16.9 µM (inactive)
UO-31
  GI50: 12.6 µM (inactive)

## COc1ccccc1C(=O)Nc1ccc(Cl)c(C(=O)OC(C)C)c1
BT-549
  GI50: 64.9 µM (inactive)
K562
  GI50: 28.4 µM (inactive)
EKVX
  GI50: 39.9 µM (inactive)
SK-OV-3
  GI50: 99.5 µM (inactive)
PC-3
  GI50: 83.2 µM (inactive)
MDA-N
  GI50: 31.1 µM (inactive)
TK-10
  GI50: > 80 µM (inactive)
Hs-578T
  GI50: > 100 µM (inactive)
IGROV-1
  GI50: > 66.8 µM (inactive)
M14
  GI50: > 54.6 µM (inactive)
OVCAR-8
  GI50: > 63 µM (inactive)
SK-MEL-28
  GI50: 36.2 µM (inactive)
COLO 205
  GI50: > 61.5 µM (inactive)
SNB-19
  GI50: > 65.3 µM (inactive)
SK-MEL-5
  GI50: 31.8 µM (inactive)
NCI-H23
  GI50: 13.5 µM (inactive)
MDA-MB-435
  GI50: > 100 µM (inactive)
OVCAR-4
  GI50: 42.4 µM (inactive)
OVCAR-3
  GI50: > 46.1 µM (inactive)
UO-31
  GI50: 18.5 µM (inactive)

## O=C(N/C(=C\c1ccccc1)C1Nc2ccccc2C(=O)O1)c1ccccc1 (stereo not given)
BT-549
  GI50: 21.5 µM (inactive)
K562
  GI50: 21.5 µM (inactive)
EKVX
  GI50: > 100 µM (inactive)
SK-OV-3
  GI50: 55.6 µM (inactive)
PC-3
  GI50: > 100 µM (inactive)
MDA-N
  GI50: 23.7 µM (inactive)
TK-10
  GI50: > 100 µM (inactive)
Hs-578T
  GI50: 30.3 µM (inactive)
IGROV-1
  GI50: 34.3 µM (inactive)
M14
  GI50: 20.2 µM (inactive)
OVCAR-8
  GI50: 21.4 µM (inactive)
SK-MEL-28
  GI50: 23.7 µM (inactive)
COLO 205
  GI50: 30.4 µM (inactive)
SNB-19
  GI50: 33.8 µM (inactive)
SK-MEL-5
  GI50: 19.6 µM (inactive)
NCI-H23
  GI50: 37.5 µM (inactive)
MDA-MB-435
  GI50: 34.5 µM (inactive)
OVCAR-4
  GI50: 53.7 µM (inactive)
OVCAR-3
  GI50: 27.3 µM (inactive)
UO-31
  GI50: 19.6 µM (inactive)
